Measured values published in PMC5379193, “Pathogen recognition of a novel C-type lectin from Marsupenaeus japonicus reveals the divergent sugar-binding specificity of QAP motif” (Scientific Reports, 2017).
Converted amounts (≈) assume the structure as drawn.

Molecular target: T1, MjGCTL (rMjGCTL) (Penaeus japonicus, UniProt A0A1L7MZX5)
T1 construct: gene GCTL; secreted from Drosophila S2 cells (pMT/BiP/V5-His C), V5 and His tags kept, Ni-NTA purified; ~50 kDa, glycosylated; ORF 311 aa, 35 kDa predicted; LDLa domain plus CRD (QAP motif)
T1 sequence (A0A1L7MZX5 17-311): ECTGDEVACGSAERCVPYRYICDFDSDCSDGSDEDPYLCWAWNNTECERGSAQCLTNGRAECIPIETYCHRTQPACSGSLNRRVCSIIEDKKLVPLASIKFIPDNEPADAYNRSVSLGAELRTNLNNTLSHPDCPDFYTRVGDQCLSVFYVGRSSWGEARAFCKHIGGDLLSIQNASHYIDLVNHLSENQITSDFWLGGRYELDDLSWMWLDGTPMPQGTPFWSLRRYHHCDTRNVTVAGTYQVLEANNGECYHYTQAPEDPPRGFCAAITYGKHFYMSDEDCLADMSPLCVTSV
Test: inhibition of bacterial agglutination by purified rMjGCTL
Type: biochemical
Settings: V. parahaemolyticus named for Man/Gal/Glc; TBS with 10 mM CaCl2, pH 7, 25 °C; 1 h preincubation; Ca2+-dependent
Excerpt: inhibition of bacterial agglutination by purified rMjGCTL on MjGCTL (rMjGCTL)

Compound `OC[C@H]1OC(O)[C@H](O)[C@@H](O)[C@@H]1O` (stereo partly drawn) [D-glucose] has a Minimum inhibitory concentration of 100 mM (≈ 18 mg/mL).
For `C[C@@H]1OC(O)[C@@H](O)[C@H](O)[C@@H]1O` (stereo partly drawn) [Fucose], the Minimum inhibitory concentration was 250 mM (≈ 41 mg/mL).
`OC[C@H]1O[C@@H](O[C@H]2[C@H](O)[C@@H](O)C(O)O[C@@H]2CO)[C@H](O)[C@@H](O)[C@H]1O` (stereo partly drawn) [Lactose] gave a Minimum inhibitory concentration of 250 mM (≈ 85.6 mg/mL).
`OC[C@H]1O[C@H](O[C@H]2[C@H](O)[C@@H](O)C(O)O[C@@H]2CO)[C@H](O)[C@@H](O)[C@@H]1O` (stereo partly drawn) [Maltose] gave a Minimum inhibitory concentration of 125 mM (≈ 42.8 mg/mL).
For `CC(=O)N[C@H]1C(O)O[C@H](CO)[C@@H](O)[C@@H]1O` (stereo partly drawn) [N-Acetyl-D-glucosamine], the Minimum inhibitory concentration was 250 mM (≈ 55.3 mg/mL).
Compound `OC1OC[C@@H](O)[C@H](O)[C@H]1O` (stereo partly drawn) [Xylose] has a Minimum inhibitory concentration of 62.5 mM (≈ 9.38 mg/mL).
